US8124610B2, “Sodium channel inhibitors” (Icagen Inc., priority 2007, dated 2012)

Molecular target: T1, hSCN9A (Homo sapiens, UniProt Q15858)
T1 construct: expressed in transfected cells
Test: Whole-cell patch-clamp electrophysiology (conventional or PatchXpress), HEK cells expressing hSCN9A, estimated IC-50
Format: cell-based
Details: estimated IC-50, HEK cells expressing hSCN9A; class symbols or bounds; read-out: SCN9A EIC-50
Protocol: Human Embryonic Kidney (HEK) cells were transfected with hSCN3A or hSCN9A constructs using lipofectamine reagent (Invitrogen), using standard techniques. Cells stably expressing the hSCN3A or hSCN9A constructs were identified by their resistance to G-418 (400 μg/ml). Clones were screened for expression using the whole-cell voltage-clamp technique. HEK cells stably transfected with hSCN3A or hSCN9A were maintained in DMEM medium supplemented with 10% heat-inactivated fetal bovine serum and 400 μg/ml G418 sulfate in an incubator at 37° C. with a humidified atmosphere of 10% CO2. For HTS, cells were harvested from flasks by trypsinization and replated in an appropriate multi-well plate (typically 96 or 384 wells/plate) such that confluence would be achieved within 24 hours of plating. For electrophysiological studies, cells were removed from the culture flask by brief trypsinization and replated at low density onto glass cover slips. Cells were typically used for electrophysiological experiments within 24 to 72 h after plating. Cover slips containing HEK cells expressing hSCN3A or hSCN9A were placed in a bath on the stage of an inverted microscope and perfused (approximately 1 ml/min) with extracellular solution of the following composition: 138 mM NaCl, 2 mM CaCl2, 5.4 mM KCl, 1 mM MgCl2, 10 mM glucose, and 10 mM HEPES, pH 7.4, with NaOH. […] All recordings were made at room temperature (22-24° C.) using AXOPATCH 200B amplifiers and PCLAMP software (Axon Instruments, Burlingame, Calif.) or PatchXpress 7000 hardware and associated software (Axon Instruments, Burlingame, Calif.). hSCN3A or hSCN9A currents in HEK cells were measured using the whole-cell configuration of the patch-clamp technique (Hamill et al., 1981). […] As a result, voltage errors were negligible and no correction was applied. Current records were acquired at 20 to 50 KHz and filtered at 5 to 10 KHz. HEK cells stably transfected with hSCN3A or hSCN9A were viewed under Hoffman contrast optics and placed in front of an array of flow pipes emitting either control or compound-containing extracellular solutions. All compounds were dissolved in dimethyl sulfoxide to make 10 mM stock solutions, which were then diluted into extracellular solution to attain the final concentrations desired. […] The voltage-dependence of inactivation was determined by applying a series of depolarizing prepulses (8 sec long in 10 mV increments) from a negative holding potential. The voltage was then immediately stepped to 0 mV to assess the magnitude of the sodium current. Currents elicited at 0 mV were plotted as a function of prepulse potential to allow estimation of the voltage midpoint of inactivation (V1/2). Cells were then voltage clamped at the empirically determined V1/2. Compounds were tested for their ability to inhibit hSCN3A or hSCN9A sodium channels by activating the channel with a 20 msec voltage step to 0 mV following an 8 second conditioning prepulse to the empirically determined V1-2 (Table B). Compound effect (% inhibition) was determined by difference in current amplitude before and after application of test compounds. […] In some cases electrophysiological assays were conducted with PatchXpress 7000 hardware and associated software (Molecular Devices Corp) (Table B). All assay buffers and solutions were identical to those used in conventional whole-cell voltage clamp experiments described above. hSCN3A or hSCN9A containing cells were grown as above to 50%-80% confluency and harvested by trypsinization. Trypsinized cells were washed and resuspended in extracellular buffer at a concentration of 1×10^6 cells/ml. The onboard liquid handling facility of the PatchXpress was used for dispensing cells and application of test compounds. Determination of the voltage midpoint of inactivation was as described for conventional whole-cell recordings. Cells were then voltage-clamped to the empirically determined V1/2 and current was activated by a 20 msec voltage step to 0 mV.

T1 sequence (Q15858 whole entry): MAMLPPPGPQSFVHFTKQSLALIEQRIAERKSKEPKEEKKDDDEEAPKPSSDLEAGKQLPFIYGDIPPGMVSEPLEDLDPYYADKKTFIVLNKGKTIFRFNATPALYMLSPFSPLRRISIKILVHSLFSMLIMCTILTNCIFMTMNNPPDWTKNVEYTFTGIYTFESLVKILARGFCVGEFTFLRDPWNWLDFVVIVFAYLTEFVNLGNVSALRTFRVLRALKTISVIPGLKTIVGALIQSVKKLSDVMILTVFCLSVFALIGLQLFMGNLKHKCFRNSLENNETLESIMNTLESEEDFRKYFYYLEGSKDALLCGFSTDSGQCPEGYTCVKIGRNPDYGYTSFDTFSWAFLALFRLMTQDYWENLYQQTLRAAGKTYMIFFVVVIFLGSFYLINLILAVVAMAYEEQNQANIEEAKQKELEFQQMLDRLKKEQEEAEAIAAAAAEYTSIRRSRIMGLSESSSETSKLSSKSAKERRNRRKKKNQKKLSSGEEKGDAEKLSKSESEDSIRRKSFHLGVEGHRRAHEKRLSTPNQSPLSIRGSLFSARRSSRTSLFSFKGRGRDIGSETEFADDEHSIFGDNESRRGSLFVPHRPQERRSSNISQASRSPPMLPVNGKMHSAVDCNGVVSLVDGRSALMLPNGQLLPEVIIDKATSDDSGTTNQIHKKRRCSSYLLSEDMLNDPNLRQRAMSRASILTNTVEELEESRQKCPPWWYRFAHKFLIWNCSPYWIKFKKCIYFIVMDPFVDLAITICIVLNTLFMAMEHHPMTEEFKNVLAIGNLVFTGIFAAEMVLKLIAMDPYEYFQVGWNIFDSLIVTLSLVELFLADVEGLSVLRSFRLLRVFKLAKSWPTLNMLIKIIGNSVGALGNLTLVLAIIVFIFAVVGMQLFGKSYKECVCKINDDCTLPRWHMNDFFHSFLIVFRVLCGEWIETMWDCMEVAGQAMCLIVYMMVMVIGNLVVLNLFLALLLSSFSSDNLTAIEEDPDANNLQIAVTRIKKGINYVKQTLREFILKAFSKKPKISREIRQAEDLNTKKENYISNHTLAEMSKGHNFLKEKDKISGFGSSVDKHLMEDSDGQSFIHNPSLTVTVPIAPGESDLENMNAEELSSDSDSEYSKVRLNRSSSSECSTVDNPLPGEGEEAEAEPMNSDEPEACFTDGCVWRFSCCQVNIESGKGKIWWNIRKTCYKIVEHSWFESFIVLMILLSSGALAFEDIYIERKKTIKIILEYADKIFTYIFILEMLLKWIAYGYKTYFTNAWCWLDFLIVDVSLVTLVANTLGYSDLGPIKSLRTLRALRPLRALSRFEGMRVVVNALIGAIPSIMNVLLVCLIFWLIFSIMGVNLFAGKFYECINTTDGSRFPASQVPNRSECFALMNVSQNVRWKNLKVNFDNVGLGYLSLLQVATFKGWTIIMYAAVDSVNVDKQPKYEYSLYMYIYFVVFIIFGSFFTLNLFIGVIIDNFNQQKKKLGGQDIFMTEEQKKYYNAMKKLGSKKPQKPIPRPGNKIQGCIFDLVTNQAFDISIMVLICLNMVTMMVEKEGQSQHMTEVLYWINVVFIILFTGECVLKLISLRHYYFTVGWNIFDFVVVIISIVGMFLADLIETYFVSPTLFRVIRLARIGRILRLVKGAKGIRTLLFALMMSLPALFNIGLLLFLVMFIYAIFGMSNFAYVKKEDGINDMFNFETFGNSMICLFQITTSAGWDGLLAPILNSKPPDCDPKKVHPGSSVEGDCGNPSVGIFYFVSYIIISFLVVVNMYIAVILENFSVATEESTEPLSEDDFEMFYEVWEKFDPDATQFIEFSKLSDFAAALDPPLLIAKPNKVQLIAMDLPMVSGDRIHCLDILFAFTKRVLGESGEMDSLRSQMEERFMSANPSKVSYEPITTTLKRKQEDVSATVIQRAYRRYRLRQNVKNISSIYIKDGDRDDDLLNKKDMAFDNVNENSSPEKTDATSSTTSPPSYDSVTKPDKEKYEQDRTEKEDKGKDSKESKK

SMILES | IC50 [nM]
O=S(=O)(Nc1nccs1)c1ccc(Nc2ccn(Cc3ccc(Cl)cc3F)n2)cc1F [Compound 197, 4-(1-(4-chloro-2-fluorobenzyl)-1H-pyrazol-3-ylamino)-2-fluoro-N-(thiazol-2-yl)benzenesulfonamide] | < 2000
O=S(=O)(Nc1nccs1)c1ccc(Nc2ncn(Cc3cccc(C(F)(F)F)c3)n2)c(F)c1 [Compound 200, 3-fluoro-N-(thiazol-2-yl)-4-(1-(3-(trifluoromethyl)benzyl)-1H-1,2,4-triazol-3-ylamino)benzenesulfonamide] | < 2000
Cc1cc(Nc2ccc(S(=O)(=O)Nc3nccs3)c(F)c2)n(C2CCN(C)CC2)n1 [Compound 202, 2-fluoro-4-(3-methyl-1-(1-methylpiperidin-4-yl)-1H-pyrazol-5-ylamino)-N-(thiazol-2-yl)benzenesulfonamide] | 2000 to 10000
Cc1cc(Nc2ccc(S(=O)(=O)Nc3nccs3)cc2F)n(-c2ccccc2F)n1 [Compound 203, 3-fluoro-4-(1-(2-fluorophenyl)-3-methyl-1H-pyrazol-5-ylamino)-N-(thiazol-2-yl)benzenesulfonamide] | < 2000
O=S(=O)(Nc1nccs1)c1ccc(Nc2ncn(Cc3ccc(F)cc3Cl)n2)c(F)c1 [Compound 207, 4-(1-(2-chloro-4-fluorobenzyl)-1H-1,2,4-triazol-3-ylamino)-3-fluoro-N-(thiazol-2-yl)benzenesulfonamide] | < 2000
O=S(=O)(Nc1nccs1)c1ccc(Nc2ncn(Cc3ccccc3Cl)n2)c(F)c1 [Compound 208, 4-(1-(2-chlorobenzyl)-1H-1,2,4-triazol-3-ylamino)-3-fluoro-N-(thiazol-2-yl)benzenesulfonamide] | < 2000
O=S(=O)(Nc1nccs1)c1ccc(Nc2ccn(Cc3ccc(Cl)cc3)n2)cc1C(F)(F)F [Compound 212, 4-(1-(4-chlorobenzyl)-1H-pyrazol-3-ylamino)-N-(thiazol-2-yl)-2-(trifluoromethyl)benzenesulfonamide] | 2000 to 10000
COc1ccccc1-n1nc(C(C)(C)C)cc1Nc1ccc(S(=O)(=O)Nc2nccs2)c(F)c1 [Compound 214, 4-(3-tert-butyl-1-(2-methoxyphenyl)-1H-pyrazol-5-ylamino)-2-fluoro-N-(thiazol-2-yl)benzenesulfonamide] | < 2000
COc1ccccc1-n1nc(C)cc1Nc1ccc(S(=O)(=O)Nc2nccs2)cc1F [Compound 215, 3-fluoro-4-(1-(2-methoxyphenyl)-3-methyl-1H-pyrazol-5-ylamino)-N-(thiazol-2-yl)benzenesulfonamide] | < 2000
O=S(=O)(Nc1nccs1)c1ccc(Nc2ccn(Cc3ccc(F)cc3)n2)cc1F [Compound 217, 2-fluoro-4-(1-(4-fluorobenzyl)-1H-pyrazol-3-ylamino)-N-(thiazol-2-yl)benzenesulfonamide] | < 2000
COc1cccc(-n2nc(C)cc2Nc2ccc(S(=O)(=O)Nc3nccs3)c(F)c2)c1 [Compound 220, 2-fluoro-4-(1-(3-methoxyphenyl)-3-methyl-1H-pyrazol-5-ylamino)-N-(thiazol-2-yl)benzenesulfonamide] | < 2000
NC(=O)c1cn(Cc2ccc(Cl)cc2)nc1Nc1ccc(S(=O)(=O)Nc2nccs2)c(F)c1 [Compound 221, 1-(4-chlorobenzyl)-3-(3-fluoro-4-(N-thiazol-2-ylsulfamoyl)phenylamino)-1H-pyrazole-4-carboxamide] | 2000 to 10000
COc1ccc(Cn2ccc(Nc3ccc(S(=O)(=O)Nc4nccs4)c(F)c3)n2)cc1 [Compound 224, 2-fluoro-4-(1-(4-methoxybenzyl)-1H-pyrazol-3-ylamino)-N-(thiazol-2-yl)benzenesulfonamide] | < 2000
Cc1nn(Cc2ccc(Cl)cc2)c(C)c1Nc1ccc(S(=O)(=O)Nc2nccs2)c(F)c1 [Compound 225, 4-(1-(4-chlorobenzyl)-3,5-dimethyl-1H-pyrazol-4-ylamino)-2-fluoro-N-(thiazol-2-yl)benzenesulfonamide] | 2000 to 10000
O=S(=O)(Nc1nccs1)c1ccc(Nc2cnn(Cc3ccc(Cl)c(C(F)(F)F)c3)c2)cc1F [Compound 229, 4-(1-(4-chloro-3-(trifluoromethyl)benzyl)-1H-pyrazol-4-ylamino)-2-fluoro-N-(thiazol-2-yl)benzenesulfonamide] | < 2000
COc1ccc(OC(F)(F)F)cc1Cn1cc(Nc2ccc(S(=O)(=O)Nc3nccs3)c(F)c2)cn1 [Compound 230, 2-fluoro-4-(1-(2-methoxy-5-(trifluoromethoxy)benzyl)-1H-pyrazol-4-ylamino)-N-(thiazol-2-yl)benzenesulfonamide] | < 2000

Results, then the molecule that gave them:

IC50 [nM] | SMILES
< 2000 | CC(C)(C)n1nc(Cc2cccc(Cl)c2)cc1Nc1ccc(S(=O)(=O)Nc2nccs2)cc1F [Compound 195, 4-(1-tert-butyl-3-(3-chlorobenzyl)-1H-pyrazol-5-ylamino)-3-fluoro-N-(thiazol-2-yl)benzenesulfonamide]
< 2000 | Cn1nc(Cc2ccc(Cl)c(F)c2)cc1Nc1ccc(S(=O)(=O)Nc2nccs2)cc1 [Compound 196, 4-(3-(4-chloro-3-fluorobenzyl)-1-methyl-1H-pyrazol-5-ylamino)-N-(thiazol-2-yl)benzenesulfonamide]
< 2000 | O=S(=O)(Nc1nccs1)c1ccc(Nc2ncn(Cc3ccc(Cl)cc3)n2)c(F)c1 [Compound 199, 4-(1-(4-chlorobenzyl)-1H-1,2,4-triazol-3-ylamino)-3-fluoro-N-(thiazol-2-yl)benzenesulfonamide]
< 2000 | Cn1nc(Cc2ccc(Cl)c(F)c2)cc1Nc1ccc(S(=O)(=O)Nc2nccs2)cc1F [Compound 209, 4-(3-(4-chloro-3-fluorobenzyl)-1-methyl-1H-pyrazol-5-ylamino)-3-fluoro-N-(thiazol-2-yl)benzenesulfonamide]
< 2000 | Cn1nc(Cc2ccc(Cl)c(F)c2)cc1Nc1ccc(S(=O)(=O)Nc2nccs2)c(F)c1 [Compound 210, 4-(3-(4-chloro-3-fluorobenzyl)-1-methyl-1H-pyrazol-5-ylamino)-2-fluoro-N-(thiazol-2-yl)benzenesulfonamide]
2000 to 10000 | O=S(=O)(Nc1nccs1)c1ccc(Nc2ccn(Cc3ccccc3)n2)cc1F [Compound 211, 4-(1-benzyl-1H-pyrazol-3-ylamino)-2-fluoro-N-(thiazol-2-yl)benzenesulfonamide]
2000 to 10000 | CN(C)C(=O)Cc1cc(Nc2ccc(S(=O)(=O)Nc3nccs3)c(F)c2)n(-c2ccccc2)n1 [Compound 213, 2-(5-(3-fluoro-4-(N-thiazol-2-ylsulfamoyl)phenylamino)-1-phenyl-1H-pyrazol-3-yl)-N,N-dimethylethanamide]
< 2000 | Cn1nc(Cc2cccc(Cl)c2)cc1Nc1ccc(S(=O)(=O)Nc2nccs2)cc1 [Compound 218, 4-(3-(3-chlorobenzyl)-1-methyl-1H-pyrazol-5-ylamino)-N-(thiazol-2-yl)benzenesulfonamide]
< 2000 | Cn1nc(Cc2cccc(Cl)c2)cc1Nc1ccc(S(=O)(=O)Nc2nccs2)cc1F [Compound 219, 4-(3-(3-chlorobenzyl)-1-methyl-1H-pyrazol-5-ylamino)-3-fluoro-N-(thiazol-2-yl)benzenesulfonamide]
< 2000 | COc1ccccc1-c1cc(Nc2ccc(S(=O)(=O)Nc3nccs3)c(F)c2)n(C)n1 [Compound 223, 2-fluoro-4-(3-(2-methoxyphenyl)-1-methyl-1H-pyrazol-5-ylamino)-N-(thiazol-2-yl)benzenesulfonamide]
< 2000 | O=S(=O)(Nc1nccs1)c1ccc(Nc2ccn(Cc3ccc(F)cc3)n2)c(F)c1 [Compound 226, 3-fluoro-4-(1-(4-fluorobenzyl)-1H-pyrazol-3-ylamino)-N-(thiazol-2-yl)benzenesulfonamide]
